Experimental data from patent US9546179B2, “Heterocycle amido alkyloxy substituted quinazoline derivative and use thereof” (priority 2011, dated 2017).

Key:
[1] = system: Human lung cancer cells (A549); assay: Anticancer effect in vitro on A549 cells (MTT, GI50); assay type: cell-based; conditions: A549, 72 hours
Protocol: The inhibitory effect on the cancer cells of the compounds prepared in Example 1-Example 13, Example 20, Example 48, Example 49 and Example 57 was determined in vitro using cancer cells. The results are shown in table 2, and the specific detection methods are as follows:
Human lung cancer cells were (A549, purchased from Shanghai FuMeng Gene Bio-technology Co., Ltd.) cultured in DMEM containing 2 m M/L-glutamine and 10% FBS, and inoculated in 96-well plate, 200 μL/well and 2000 cells per well; the plate was preincubated for 24 hours under the condition of 5% CO2 and 100% relative humidity at 37° C., allowing for cell adherence.
When the cells adhered, the supernatant was removed, and 200 μL drug-containing culture medium was added with different concentration of compounds into each well (in concentration of 20 μg/ml, 12.5 µg/ml, 6.25 μg/ml, […], 1.5625 μg/ml and 0.78125 μg/ml), 3 multiple wells were set up for each drug concentration as well as blank control (cell culture medium without cells), and drug-free control (with no drugs, filled with complete medium in equal amount only), cultured for 72 hours under the condition of 5% CO2 incubator at 37° C. (100% relative humidity).
After the culture ended, the supernatant was carefully removed, and adding 200 μl DMEM culture medium containing 3% FBS with 500 μg/ml MTT into each well, and culturing for 4 hours under the condition of 5% CO2 incubator at 37° C. (100% relative humidity). After the supernatant was discarded, 150 μL DMSO was added in each well for solving. the GI50 value was measured by detecting the absorbance in the 570 nm wavelength.

[2] = biological target: T1, receptor tyrosine kinase EGFR (Homo sapiens, UniProt P00533); assay: Inhibitory effect on receptor tyrosine kinase EGFR (ELISA, Poly(Glu, Tyr)4:1, PY99 antibody); assay type: biochemical; conditions: ATP 4 μM, 1 hour at 37° C.
T1 construct: purchased Shanghai 3bio Technology Co., Ltd. Lot No. 4018780925
T1 sequence (P00533 25-1210): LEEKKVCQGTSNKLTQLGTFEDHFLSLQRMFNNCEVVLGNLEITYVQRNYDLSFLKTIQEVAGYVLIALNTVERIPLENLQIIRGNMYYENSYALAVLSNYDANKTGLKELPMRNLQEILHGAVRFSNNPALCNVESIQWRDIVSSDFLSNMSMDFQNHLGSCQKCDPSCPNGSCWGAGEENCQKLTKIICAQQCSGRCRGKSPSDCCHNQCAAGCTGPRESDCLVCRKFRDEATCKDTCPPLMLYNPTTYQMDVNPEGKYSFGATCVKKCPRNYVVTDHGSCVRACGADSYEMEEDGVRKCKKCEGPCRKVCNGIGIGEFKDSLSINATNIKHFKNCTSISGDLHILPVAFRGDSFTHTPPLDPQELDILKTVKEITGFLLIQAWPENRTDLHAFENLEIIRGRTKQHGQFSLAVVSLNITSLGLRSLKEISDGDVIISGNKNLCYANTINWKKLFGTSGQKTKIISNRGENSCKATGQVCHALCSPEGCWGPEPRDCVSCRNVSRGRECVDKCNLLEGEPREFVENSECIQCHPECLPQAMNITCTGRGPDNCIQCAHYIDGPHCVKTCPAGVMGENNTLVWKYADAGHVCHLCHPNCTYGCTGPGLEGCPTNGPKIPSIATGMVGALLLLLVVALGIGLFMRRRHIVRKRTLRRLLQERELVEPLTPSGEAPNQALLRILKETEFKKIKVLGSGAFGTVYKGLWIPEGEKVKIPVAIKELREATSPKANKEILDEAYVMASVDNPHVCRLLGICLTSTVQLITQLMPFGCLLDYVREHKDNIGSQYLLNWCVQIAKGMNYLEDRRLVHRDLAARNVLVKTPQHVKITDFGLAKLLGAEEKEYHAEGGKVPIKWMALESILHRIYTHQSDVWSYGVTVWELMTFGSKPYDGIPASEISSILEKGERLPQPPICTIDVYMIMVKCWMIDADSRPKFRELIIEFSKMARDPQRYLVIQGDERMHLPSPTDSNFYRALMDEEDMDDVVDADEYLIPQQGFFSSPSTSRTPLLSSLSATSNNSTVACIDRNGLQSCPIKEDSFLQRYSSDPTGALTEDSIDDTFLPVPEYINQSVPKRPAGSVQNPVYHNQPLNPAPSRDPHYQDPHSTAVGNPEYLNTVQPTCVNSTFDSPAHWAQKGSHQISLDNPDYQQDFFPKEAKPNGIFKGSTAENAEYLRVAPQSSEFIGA
Protocol: Poly(Glu, Tyr)4:1 was diluted into 100 μg/ml by PBS without potassium. Enzyme label plate was coated with 37 μl/well at 37° C. overnight,
The liquid in the wells was removed. The plate was rinsed by T-PBS for 5 minutes, and dried at 37° C. after repeated 3 times.
The testing sample was diluted to the concentration concerned by reaction buffer solution, and added into the wells of the coated enzyme label plate. The concentration diluted should realize 1.0000 μg/ml, 0.1250 μg/ml, 0.0156 μg/ml, 0.00195 μg/ml and 0.00024 μg/ml in the 100 μl reaction.
Adding in ATP solution (4 μM of final concentration) diluted by reaction buffer solution,
Finally, the tyrosine kinase diluted by reaction buffer solution was added, and forming the reaction with 100 μl total volume.
Meanwhile, negative control wells and enzyme-free control wells were prepared. The reaction was kept in the dark wet box for 1 hour at 37° C. The plate was rinsed by T-PBS for three times after the reaction ended, and blocked by 1% BSA […] for 30 min, and then, PY99 antibody (1:1000 diluted by 0.05% PBST with 1% BSA) was added in 100 μl/well. After incubated at 37° C. for 30 minutes, the plate was rinsed by T-PBS for three times, and the goat anti-mouse IgG marked with HRP (1 mg/ml 1:1000 diluted by 0.05% PBST with 1% BSA) was then added in 100 μl/well. After incubated at 37° C. for 30 minutes, the plate was rinsed by T-PBS for three times.
Colorimetric solution OPD was added in 100 μl/well for 20 minutes' reaction in the dark side at the room temperature. Colorimetric substrate solution OPD was the solution of 0.1 mol/L citric acid-disodium hydrogen phosphate buffer (pH 5.0) with 20 mmol/L OPD and 12 mmol/L H2O2 (freshly prepared when using).
50 μl of 2M H2SO4 (2 mol/L sulfuric acid containing 0.1 mol/L sodium sulfate) was added in to terminate the reaction, and the A492 value was read with adjustable wavelength micro late enzyme-labeling instrument VERSAmax.
The inhibition rate of samples is calculated by the following formula: […]

SMILES | GI50 [1] | IC50 [2]
COc1cc2ncnc(Nc3cc(Cl)ccc3F)c2cc1OCCCN1CC[C@H]2OCC[C@H]21 (relative stereo) [Example 20, 4-(5′-chloro-2′-fluorophenylamino)-6-[3-(cis-hexahydrofuro[3,2-b]pyrrole-4-yl)-propoxy]-7-methoxyquinazoline] | 59.5 µM | 0.01 to 0.1 µM
COc1cc2ncnc(Nc3ccc(F)c(Cl)c3)c2cc1OCCCN1CCC2(CCNC2=O)CC1 [Example 82, 4-(3′-chloro-4′-fluorophenylamino)-6-[3-(2,8-diazaspiro[4.5]decane-1-ketone-8-yl)-propoxy]-7-methoxyquinazoline] | – | 0.01 to 0.1 µM
COc1cc2ncnc(Nc3ccc(F)c(Cl)c3)c2cc1OCCCN1CCC2(CCC(=O)N2)CC1 [Example 84, 4-(3′-chloro-4′-fluorophenylamino)-6-[3-(1,8-diazaspiro[4.5]decane-2-ketone-8-yl)-propoxy]-7-methoxyquinazoline] | – | 0.01 to 0.1 µM
COc1cc2ncnc(Nc3ccc(F)c(Cl)c3)c2cc1OCCCN1CCC2(CC1)CCN(C)C2=O [Example 85] | – | 0.01 to 0.1 µM
COc1cc2ncnc(Nc3ccc(F)c(Cl)c3)c2cc1OCCCN1CC2(CNC(=O)C2)C1 [Example 86, 4-(3′-chloro-4′-fluorophenylamino)-6-[3-(2,6-diazaspiro[3.4]octane-7-ketone-2-yl)-propoxy]-7-methoxyquinazoline] | – | 0.01 to 0.1 µM
COc1cc2ncnc(Nc3ccc(F)c(Cl)c3)c2cc1OCCCN1CCC2(CC1)CNC(=O)O2 [Example 87, 4-(3′-chloro-4′-fluorophenylamino)-6-[3-(1-oxa-3,8-diazaspiro[4.5]decane-2-ketone-8-yl)-propoxy]-7-methoxyquinazoline] | – | 0.01 to 0.1 µM
COc1cc2ncnc(Nc3ccc(F)c(Cl)c3)c2cc1OCCCN1C[C@@H]2CN(C(=O)OC(C)(C)C)C[C@@H]2C1 [Example 88, 4-(3′-chloro-4′-fluorophenylamino)-6-[3-(5-tertbutyloxycarbonyl-hexahydropyrrolo[3,4-c]pyrrole-2-yl)-propoxy]-7-methoxyquinazoline] | – | > 1 µM
COc1cc2ncnc(Nc3ccc(F)c(Cl)c3)c2cc1OCCCN1CC2(CNC(=O)O2)C1 [Example 90, 4-(3′-chloro-4′-fluorophenylamino)-6-[3-(5-oxa-2,7-diazaspiro[3.4]octane-6-ketone-2-yl)-propoxy]-7-methoxyquinazoline] | – | 0.0001 to 0.01 µM
COc1cc2ncnc(Nc3ccc(F)c(Cl)c3)c2cc1OCCCN1CC2(C1)CN(C)C(=O)O2 [Example 91, 4-(3′-chloro-4′-fluorophenylamino)-6-[3-(7-methyl-5-oxa-2,7-diazaspiro[3.4]octane-6-ketone-2-yl)-propoxy]-7-methoxyquinazoline] | – | 0.01 to 0.1 µM
COc1cc2ncnc(Nc3ccc(F)c(Cl)c3)c2cc1OCCCN1CC2CCC(C1)O2 [Example 93, 4-(3′-chloro-4′-fluorophenylamino)-6-[3-(8-oxa-3-aza-azabicyclo[3.2.1]octane-3-yl)-propoxy]-7-methoxyquinazoline] | – | 0.1 to 1 µM
[2H]C([2H])([2H])Oc1cc2ncnc(Nc3ccc(F)c(Cl)c3)c2cc1OCCCN1CCC2(CC1)CNC(=O)O2 [Example 95, 4-(3′-chloro-4′-fluorophenylamino)-6-[3-(1-oxa-3,8-diazaspiro[4.5]decane-2-ketone-8-yl)-propoxy]-7-deuterated methoxyquinazoline] | – | 0.01 to 0.1 µM
[2H]C([2H])([2H])Oc1cc2ncnc(Nc3ccc(F)c(Cl)c3)c2cc1OCCCN1CCC2(C1)CN(C)C(=O)O2 (centres unmarked) [Example 96, 4-(3′-chloro-4′-fluorophenylamino)-6-[3-(3-methyl-1-oxa-3,7-diazaspiro[4.4]nonane-2-ketone-7-yl)-propoxy]-7-deuterated methoxyquinazoline] | – | 0.01 to 0.1 µM
[2H]C([2H])([2H])Oc1cc2ncnc(Nc3ccc(F)c(Cl)c3)c2cc1OCCCN1CC2(CNC(=O)O2)C1 [Example 97, 4-(3′-chloro-4′-fluorophenylamino)-6-[3-(5-oxa-2,7-diazaspiro[3.4]octane-6-ketone-2-yl)-propoxy]-7-deuterated methoxyquinazoline] | – | 0.1 to 1 µM
[2H]C([2H])([2H])Oc1cc2ncnc(Nc3ccc(F)c(Cl)c3)c2cc1OCCCN1CC2(C1)CN(C)C(=O)O2 [Example 98, 4-(3′-chloro-4′-fluorophenylamino)-6-[3-(7-methyl-5-oxa-2,7-diazaspiro[3.4]octane-6-ketone-2-yl)-propoxy]-7-deuterated methoxyquinazoline] | – | 0.0001 to 0.01 µM

Further lines, results first:

GI50 [1] | IC50 [2] | SMILES
39.7 µM | 0.01 to 0.1 µM | COc1cc2ncnc(Nc3ccc(F)c(Cl)c3)c2cc1OCCCN1CC2(COC2)C1 [Example 1, 4-(3′-chloro-4′-fluorophenylamino)-6-[3-(2-oxa-6-azaspiro[3.3]heptane-6-yl)-propoxy]-7-methoxyquinazoline]
10.2 µM | 0.1 to 1 µM | COc1cc2ncnc(Nc3ccc(F)c(Cl)c3)c2cc1OCCN1CCC2(COC2)C1 [Example 3, 4-(3′-chloro-4′-fluorophenylamino)-6-[2-(2-oxa-6-azaspiro[3.4]octane-6-yl)-oxethyl]-7-methoxyquinazoline]
8.5 µM | 0.01 to 0.1 µM | COc1cc2ncnc(Nc3ccc(F)c(Cl)c3)c2cc1OCCCN1CC2(CCOCC2)C1 [Example 4, 4-(3′-chloro-4′-fluorophenylamino)-6-[3-(7-oxa-2-azaspiro[3.5]nonane-2-yl)-propoxy]-7-methoxyquinazoline]
8.6 µM | 0.01 to 0.1 µM | COc1cc2ncnc(Nc3ccc(F)c(Cl)c3)c2cc1OCCCN1CCC2(CC1)COC2 [Example 5, 4-(3′-chloro-4′-fluorophenylamino)-6-[3-(2-oxa-7-azaspiro[3.5]nonane-7-yl)-propoxy]-7-methoxyquinazoline]
– | 0.0001 to 0.01 µM | COc1cc2ncnc(Nc3ccc(F)c(Cl)c3)c2cc1OCCCN1CCC2(CCNC2=O)C1 (centres unmarked) [Example 80, 4-(3′-chloro-4′-fluorophenylamino)-6-[3-(2,7-diazaspiro[4.4]-nonane-1-ketone-7-yl)-propoxy]-7-methoxyquinazoline]
– | 0.01 to 0.1 µM | COc1cc2ncnc(Nc3ccc(F)c(Cl)c3)c2cc1OCCCN1CCC2(CCN(C)C2=O)C1 (centres unmarked) [Example 81, 4-(3′-chloro-4′-fluorophenylamino)-6-[3-(2-methyl-2,7-diazaspiro[4.4]-nonane-1-ketone-7-yl)-propoxy]-7-methoxyquinazoline]
– | 0.0001 to 0.01 µM | COc1cc2ncnc(Nc3ccc(F)c(Cl)c3)c2cc1OCCCN1CCC2(CC1)CC(=O)N(C)C2 [Example 83, 4-(3′-chloro-4′-fluorophenylamino)-6-[3-(2-methyl-2,8-diazaspiro[4.5]decane-3-ketone-8-yl)-propoxy]-7-methoxyquinazoline]
– | 0.01 to 0.1 µM | COc1cc2ncnc(Nc3ccc(F)c(Cl)c3)c2cc1OCCCN1CCC2(C1)CN(C)C(=O)O2 (centres unmarked) [Example 89, 4-(3′-chloro-4′-fluorophenylamino)-6-[3-[3-methyl-1-oxa-3,7-diazaspiro[4.4]nonane-2-ketone-7-yl)-propoxy]-7-methoxyquinazoline]
– | 0.01 to 0.1 µM | COc1cc2ncnc(Nc3ccc(F)c(Cl)c3)c2cc1OCCCN1CCC2(CCN(C(C)=O)C2)C1 (centres unmarked) [Example 92, 4-(3′-chloro-4′-fluorophenylamino)-6-[3-(7-acetyl-2,7-diazaspiro[4.4]-nonane-2-yl)-propoxy]-7-methoxyquinazoline]
– | 0.01 to 0.1 µM | COc1cc2ncnc(Nc3ccc(F)c(Cl)c3)c2cc1OCCCN1CCC2(CC1)CNC(=O)C2 [Example 94, 4-(3′-chloro-4′-fluorophenylamino)-6-[3-(2,8-diazaspiro[4.5]decane-3-ketone-8-yl)-propoxy]-7-methoxyquinazoline]
